Assay results: US9161910B2, “Method and pharmaceutical compositions for trans-buccal mucosa treatment of postprandial hyperglycaemia in type II diabetes” (priority 2009, dated 2015)
Like-named read-outs stand apart in the source and are kept apart here. One block for each compound: values may come before it.

Key:
[1] = tested on: plasma carrier proteins; conditions: cited from earlier work
[2] = cited from earlier work; for distribution volume: in vivo
[3] = cited from earlier work; for solubility in alcohol: alcohol / ethanol
[4] = Complete dissolution in hydroalcoholic solution according to the invention; assay type: physicochemical; conditions: approximately 50° hydroalcoholic solution
From the text: The term “dissolved in a stable and a complete manner” means a state of dissolution restoring the active principle to the molecular state, slightly ionized in its dissolving medium, the state of dissolution preventing any possibility of inopportune recrystallization.

[5] = oral; cited from earlier work
[6] = tested on: obese, diabetic patients; conditions: continuous perfusion, 6 weeks; cited from earlier work

Compound: N[C@@H](CC(=O)N1CCn2c(nnc2C(F)(F)F)C1)Cc1cc(F)c(F)cc1F [Sitagliptin, sitagliptin]
binding to plasma proteins (in words) [1]: bound to plasma proteins | bioavailability ([2]; oral): ~87% | mean distribution volume in the organism ([2]; single dose of 100 mg intravenous): approximately 198 L | solubility in organic solvents [3]: soluble in water and certain organic solvents | solubility in water [3]: soluble in water

complete dissolution, amount [4]: 3.5 mg for 0.75 mL
Compound: Cc1ccc(S(=O)(=O)NC(=O)NN2CC3CCCC3C2)cc1 (stereo not drawn) [Gliclazide, gliclazide]
binding to plasma carrier proteins [1]: 95% | distribution volume [2]: approximately 30 L | distribution volume ([2]; listed as gliclazide): 30 L | hepatic metabolism (in words) ([2]; oral): extensively metabolized by the first hepatic passage | solubility in alcohol [3]: slightly soluble in alcohol | solubility in water [3]: insoluble in water

Compound: N#C[C@@H]1CCCN1C(=O)CNC12CC3CC(CC(O)(C3)C1)C2 [Vildagliptin, vildagliptin]
bioavailability ([2]; oral): approximately 85% | solubility in organic solvents [3]: soluble in water and organic solvents | solubility in water [3]: soluble in water

Compound: CN(C)C(=N)N=C(N)N [Metformin, metformin]
binding to plasma proteins (in words) [1]: not bound to plasma proteins

Compound: CCOc1cc(CC(=O)N[C@@H](CC(C)C)c2ccccc2N2CCCCC2)ccc1C(=O)O [Repaglinide, repaglinide]
inter-individual variability in plasma concentration [5]: 60% | intra-individual variability in plasma concentration [5]: 35% | onset of insulinotropic response after taking [5]: approximately 30 min

complete dissolution, amount [4]: 1 mg per 1 mL
Compound: COc1ccc(Cl)cc1C(=O)NCCc1ccc(S(=O)(=O)NC(=O)NC2CCCCC2)cc1 [glibenclamide]
solubility in alcohol [3]: slightly soluble in ethanol | solubility in water [3]: practically insoluble in water

Compound: glucagon-like peptide-1 [GLP-1]
reduction in postprandial glycemia [6]: 5.5 mM | reduction of hemoglobin HbAlC [6]: 1.3%
